The results in this text go back to the METLIN SMRT retention time set (Domingo-Almenara et al. 2019).

The nature of this data set: gradient 5% acetonitrile 3 min, to 50% in 2 min, to 85% in 15 min, held 3 min, 100 µL/min. As to conditions: column: Zorbax Extend-C18 2.1 x 50 mm; eluents: water / acetonitrile, 0.1% formic acid. Summed up:
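Using water and acetonitrile that each contained 0.1% formic acid, mixtures of ~100 pure standards were separated at 100 μL/min on a Zorbax Extend-C18 column (2.1 × 50 mm, 1.8 μm). The HPLC fed a quadrupole time-of-flight mass spectrometer working in positive and negative ionization mode, with dead and dwell volumes of 40 μL and 900 μL. Data were acquired over 3 months. Retention time was read from computationally picked adduct peaks after manual inspection of each.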
The compound `Cn1nc(C(=O)N2CCCCC2)c2c1CCN(C(=O)CCC(=O)N1CCCC1)C2` gave an RP-LC retention time of 622 s.
For `Cc1ccc(C(=O)N2CCC(N3C(=O)C(O)C34CCCCC4)CC2)s1` (stereo not given) the value was 678 s.
For `CCNC(=O)C1CCCN(C(=O)Nc2ccc(NC(=O)Nc3ccc(C)cc3C)cc2)C1` (stereo not given) the value was 730 s.
Then `Cc1cccc(NC(=O)C2CCCN(c3cc(=O)n(C)c(=O)n3C)C2)c1` (stereo not given), with 735 s; and `CCNC(=O)c1cc(N2CCCC2)nc2c(C)cccc12`, with 702 s; and `O=C(NCC(=O)N1CCOC(c2ccccc2)C1)c1ccc(-c2ccccc2)cc1` (stereo not given), with 893 s.
In the case of `Cc1ccc(CNC(=O)Cn2nc(C)c3sc(-c4ccccc4)nc3c2=O)cc1C`, the RP-LC retention time was found to be 968 s.
For `CNC(=O)C1CCCN(c2nc3ncn(CC(=O)NCCc4ccc(Cl)cc4)c(=O)c3s2)C1` (stereo not given) the value was 681 s; for `O=C1CCCN1CCCN1C(=O)[C@H]2CN(Cc3cccc(Cl)c3F)C[C@H]2C1=O`, 660 s.
The compound `O=C(NCC1CCOCC1)Nc1ccc(Cl)cc1` displayed an RP-LC retention time of 705 s.
With `COc1ccccc1NC(=O)N1CCc2cn(C)c3cccc(c23)C1`, the RP-LC retention time was 944 s.
For `CCN(CC)C(=O)c1ccc2c(c1)N(CC(=O)Nc1cc(C)cc(C)c1)C(=O)CS2` the value was 858 s.
Then `CCC(=O)Oc1ccc(N(C)C2=NS(=O)(=O)c3ccccc32)cc1`, with 859 s; and `Cc1ccc(NC(=O)Nc2cccn3ncnc23)cc1`, with 776 s; and `COc1cccc(NC(=O)N2CCc3nc(-c4ccccc4)ncc3C2)c1`, with 884 s.
Then `O=C(N[C@@H]1CN(c2ccncn2)C[C@H]1CO)c1ccc2c(c1)OCO2`, with 578 s.
With `O=C(Cn1cccc1-c1nc(-c2ccc3c(c2)OCO3)no1)Nc1cccc(Cl)c1`, the RP-LC retention time stood at 1060 s.
For `O=C(NC1CCCCCC1)c1ccc(Cn2cncn2)cc1` the value was 714 s; for `O=S(=O)(Cc1cccc(Cl)c1)NCC1CCN(Cc2ccco2)CC1`, 573 s; for `CC(C)n1nnc2cc(S(=O)(=O)N3CCCC(C(=O)N4CCCCCC4)C3)ccc21` (stereo not given), 886 s.
Then `CC(C)n1c(CN2CCOCC2)nc2ccccc21`, with 556 s.
For `Cc1ncsc1CN1CCC(Oc2ccccc2-c2nc(C3CC3)no2)C1` (stereo not given) the value was 653 s; for `CCN1C(=O)C(C)(C(=O)Nc2cc(OC)cc(OC)c2)Oc2cccnc21` (stereo not given), 868 s; for `CCNC(=O)C1CCCN(c2nc3ncn(CC(=O)Nc4cc(F)ccc4C)c(=O)c3s2)C1` (stereo not given), 689 s.
For `COc1cccc(CNc2ncc(C(=O)O)c(C(C)C)n2)c1`, the RP-LC retention time turned out to be 851 s.
Then `COc1ccccc1NS(=O)(=O)c1ccc(-c2nnc(C3CCC3)o2)o1`, with 904 s; and `CN(C)C(=O)c1cccc(C(=O)N(C)C)n1`, with 541 s; and `COc1ccc(C2CCCN2C(=O)c2nn(C)cc2Cl)cc1` (stereo not given), with 770 s.
Turning to `CCOC(=O)c1[nH]c(C)c(C(=O)N2CCC(CC(=O)N3CCN(C4CCCCC4)CC3)CC2)c1C`, the RP-LC retention time was found to be 598 s.
Then `CCCc1cc(N2CCN(C(=O)c3cccnc3)CC2)nc2nnc(CC)n12`, with 580 s; and `CCC(=O)N1CCc2c(C(=O)NC3CC3)cccc21`, with 653 s.
Then `O=C(CN1CCN(Cc2ccccc2)C1=O)N1CCN(c2ccc(F)cc2)CC1`, with 813 s.
For `COc1ccc(S(=O)(=O)Nc2cc(-c3cn4cccc(C)c4n3)ccc2C)cc1OC` the value was 662 s.
`CN(C)C/C=C(/c1ccc(Br)cc1)c1cccnc1`: the RP-LC retention time is 664 s.
The compound `CN1c2cc(Cl)ccc2C(=O)NC12CCN(C(=O)NCc1ccc(F)cc1)CC2` gave an RP-LC retention time of 820 s.
Then `CCOc1ccc(-c2noc(Cn3c(=O)n(-c4ccc(C)cc4)c(=O)c4sccc43)n2)cc1OC`, with 987 s.
Then `CSc1ccc(Cl)c(C(=O)Nc2ccc3c(N4CCOCC4)ncnc3c2)c1`, with 669 s.
`CCn1nnc2cc(-c3noc(CNC(=O)Cc4ccc(Cl)cc4)n3)ccc21`: the RP-LC retention time is 816 s.
For `Cc1ccccc1NC(=O)N1c2ccccc2NC2=C(C(=O)CCC2)C1c1ccco1` (stereo not given), the RP-LC retention time amounted to 817 s.
Then `CCc1cc(C(=O)N2CCN(CC(C)C)CC2)nc2cc(-c3ccco3)nn12`, with 734 s; and `COC(=O)c1ccc(NC(=O)Cn2cccc(-c3nc(-c4ccc(F)cc4)no3)c2=O)cc1`, with 877 s; and `COc1ccc(CCNC(=O)CSC2CCc3ccccc3NC2=O)cc1OC` (stereo not given), with 708 s.
Then `CNC(=O)N1CCCC(c2cccc(C(=O)NC(C)c3ccc(C)cc3C)c2)C1` (stereo not given), with 880 s.
Turning to `Cc1ccc(-c2nc(N)n(C(=O)C3CC3)n2)cc1`, the RP-LC retention time came out at 872 s.
For `Cc1ccc(N2CCC(NC(=O)NCc3ccc(F)cc3)C2=O)cc1C` (stereo not given) the value was 874 s; for `Clc1ccc(-c2noc3ncnc(N4CCN(c5ccccn5)CC4)c23)cc1`, 697 s.
Then `Cc1ccc(-c2noc(-c3ccccc3S(=O)(=O)NC3CCCC3)n2)cc1`, with 1300 s; and `CCOC(=O)c1c(S(=O)(=O)N2CCC(C(=O)Nc3ccc(CC)cc3)CC2)c(C)n(CC)c1C`, with 984 s.
For `CCC(C)NC(=O)N1CCCN(C2=NS(=O)(=O)C(c3cccc(Cl)c3)=C2C)CC1` (stereo not given) the value was 837 s.
`Cc1ccc(Cn2c(N3CCCC(C(=O)Nc4cc(C)cc(C)c4)C3)nc3ccsc3c2=O)cc1` (stereo not given) gave an RP-LC retention time of 1160 s.
Then `Cc1ccc(S(=O)(=O)N2CCC(n3cnnc3C(C)C)CC2)c(C)c1`, with 784 s; and `Cc1cccc(-c2noc(C3CCCN3C(=O)NC3CCCC3)n2)c1` (stereo not given), with 955 s.
Then `CCCS(=O)(=O)N1CCC(OCCOc2cccnc2)CC1`, with 581 s; and `COc1ccc(NC(=O)C2CCCN(c3nnc4c(Cl)cccn34)C2)cc1OC` (stereo not given), with 667 s; and `Cc1nc(CCNC(=O)[C@H]2CCCN2C(=O)c2ccc(Cl)cc2)cs1`, with 674 s.
The compound `Cc1cccn2cc(C(=O)NCc3ccc(F)cc3F)nc12` came in with an RP-LC retention time of 733 s.
For `Cc1ccc(S(=O)(=O)NCCc2cn(CC(C)C)c3ncccc23)cc1C` the value was 978 s; for `COc1ccccc1N1CCN(c2cc(SCC(=O)NCCC3=CCCCC3)ncn2)CC1`, 1080 s.
For `Cc1ccc(N2CCN(Cc3nc(-c4ccc(N5CCSCC5)nc4)no3)CC2)cc1` the value was 959 s; for `O=C(C1CCN(c2ccc3nncn3n2)CC1)N1CCN(c2ccccn2)CC1`, 560 s; for `O=C(NC1CC1)[C@@H]1C[C@H](Oc2ccccc2)CN1C(=O)c1cc2ccccc2[nH]1`, 847 s.
Then `Cc1cc2c(cc1S(=O)(=O)N1CCCC1C(=O)Nc1ccc(F)cc1)OCC(=O)N2` (stereo not given), with 743 s; and `Cc1ccc(N2C(=O)C3N=NN(c4ccc(F)cc4)C3C2=O)cc1C` (stereo not given), with 1050 s.
`O=C(CCc1nc(CSc2nnc(-c3ccccc3)o2)no1)Nc1ccc(Cl)cc1` yielded an RP-LC retention time of 949 s.
For `CC1CCc2c(sc3ncn4c(=O)n(CC(=O)N5CCc6ccccc6C5)nc4c23)C1` (stereo not given) the value was 1070 s; for `CCC1Oc2ccc(S(=O)(=O)N3CCC(C(=O)NCCc4ccccc4)CC3)cc2NC1=O` (stereo not given), 872 s; for `Cc1cccc(NS(=O)(=O)c2cc(-c3cc(C(F)(F)F)on3)sc2C)c1C`, 1240 s.
`CC(C(=O)Nc1cccc(Cl)c1)C1CCN(C(=O)Nc2ccc(F)cc2)CC1` (stereo not given): the RP-LC retention time was determined as 933 s.
Then `O=C(N1CCC2(CC1)CC(CCOc1ccncc1)CCO2)C1(c2ccccc2)CC1` (stereo not given), with 664 s; and `Cc1nnsc1C(=O)N1CC2CC(C1)c1cccc(=O)n1C2` (stereo not given), with 551 s.
Then `CCCN(CCC)C1Cc2cc(OC)c(OC)cc2C1`, with 680 s; and `CCN(C(=O)Cc1csc2nc(-c3ccc(OC)c(OC)c3)cn12)c1ccccc1`, with 772 s.
For `CCC(C)NC(=O)CCC(=O)N1CCc2c(c(C(=O)N3CCCCC3)nn2C)C1` (stereo not given) the value was 645 s.
`O=C(NCc1ccccn1)C1CC(=O)N(c2n[nH]c3cc(Br)ccc23)C1` (stereo not given): the RP-LC retention time turned out to be 600 s.
The compound `Cc1nn(C)c(C)c1S(=O)(=O)N1CCCC(Cc2nncn2-c2ccccc2)C1` (stereo not given) showed an RP-LC retention time of 604 s.
For `Cc1c(Cn2c(C)nc3c(C(=O)O)cc(N4CCOCC4)cc32)cccc1C(F)(F)F` the value was 741 s; for `O=c1c2ccc(O)cc2oc2cc(O)ccc12`, 612 s; for `Cc1cccc(S(=O)(=O)N2CCc3nc(-c4ccccc4)ncc3C2)c1C`, 1160 s.
Then `COc1ccc(N2CCN(c3ccc(-c4nc(-c5ccccc5)no4)cn3)CC2)cc1`, with 1240 s; and `Cn1cc(-c2cc3n(n2)CCCN3C(=O)CCC(=O)NC2CCCCC2)c2ccccc21`, with 837 s.
